Measured values from BindingDB's records for doi:10.1016/s0960-894x(99)00301-7 (Nankai University, 1999).

Target: T1, Acetolactate synthase, chloroplastic (Arabidopsis thaliana, UniProt P17597)
T1 sequence (P17597 whole entry): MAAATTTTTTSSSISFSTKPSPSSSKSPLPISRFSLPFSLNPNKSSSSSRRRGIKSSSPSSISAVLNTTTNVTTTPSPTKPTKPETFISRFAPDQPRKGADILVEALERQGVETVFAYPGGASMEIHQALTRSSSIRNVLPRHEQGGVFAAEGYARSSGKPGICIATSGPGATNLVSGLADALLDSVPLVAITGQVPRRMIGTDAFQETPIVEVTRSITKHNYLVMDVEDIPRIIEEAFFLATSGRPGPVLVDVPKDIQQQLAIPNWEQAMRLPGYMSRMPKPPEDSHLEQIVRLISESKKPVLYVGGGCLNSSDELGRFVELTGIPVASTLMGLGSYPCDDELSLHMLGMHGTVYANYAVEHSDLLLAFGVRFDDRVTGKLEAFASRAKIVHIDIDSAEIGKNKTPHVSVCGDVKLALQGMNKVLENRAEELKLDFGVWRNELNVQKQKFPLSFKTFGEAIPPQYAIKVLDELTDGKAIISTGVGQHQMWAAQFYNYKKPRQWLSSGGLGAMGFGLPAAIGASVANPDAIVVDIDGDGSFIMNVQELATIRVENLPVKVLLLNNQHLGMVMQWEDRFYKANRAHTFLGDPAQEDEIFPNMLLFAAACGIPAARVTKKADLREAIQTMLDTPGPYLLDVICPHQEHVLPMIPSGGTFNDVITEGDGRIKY
Assay: ChEBML_27494
Text: Inhibitory activity against Acetolactate synthase (ALS) enzyme by using the rape-root growth method

| SMILES | IC50 |
| --- | --- |
| Cc1ccc(NS(=O)(=O)c2ccc(F)cc2)nc1 [4-Fluoro-N-(5-methyl-pyridin-2-yl)-benzenesulfonamide] | 152 µM |
| Cc1cnc(NS(=O)(=O)c2cc(Cl)ccc2Cl)s1 [2,5-Dichloro-N-(5-methyl-thiazol-2-yl)-benzenesulfonamide] | > 309 µM |
| O=C(OCn1ccc(=O)[nH]c1=O)c1ccc([N+](=O)[O-])cc1 | > 344 µM |
| COc1ccccc1C(=O)OCn1ccc(=O)[nH]c1=O | > 362 µM |
| O=C(OCn1ccc(=O)[nH]c1=O)c1ccc(F)cc1 | 212 µM |
| COc1ccc(C(=O)OCn2ccc(=O)[nH]c2=O)cc1 | > 362 µM |
| COc1cc(Cl)nc(NS(=O)(=O)c2ccc(F)cc2)n1 [N-(4-Chloro-6-methoxy-pyrimidin-2-yl)-4-fluoro-benzenesulfonamide] | 111 µM |
| O=C(OCn1ccc(=O)[nH]c1=O)c1c(Cl)cc(C(F)(F)F)cc1Cl | > 261 µM |
| Cc1ccnc(NS(=O)(=O)c2ccccc2[N+](=O)[O-])n1 [N-(4-Methyl-pyrimidin-2-yl)-2-nitro-benzenesulfonamide] | 287 µM |

More lines, now with the values ahead:

| IC50 | SMILES |
| --- | --- |
| 62 µM | Cc1cccc(C(=O)OCn2ccc(=O)[nH]c2=O)c1 |
| 208 µM | O=C(OCn1ccc(=O)[nH]c1=O)c1ccccc1 |
| 182 µM | O=C(OCn1ccc(=O)[nH]c1=O)c1ccc(Cl)cc1 |
| > 269 µM | O=C(OCn1ccc(=O)[nH]c1=O)c1ccc(I)cc1 |
| 169 µM | O=C(OCn1ccc(=O)[nH]c1=O)c1ccc(Br)cc1 |
